Tested on: K98450-129-R-PDC complex spheroid growth, percent test/control
Test: Anticancer human tumor K98450-129-R-PDC patient-derived colon adenocarcinoma cell line growth inhibition [RAS]
Settings: for IC50: curve of first compound; for viability, T/C: stronger effect = lower value
In short: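 Agents were tested in combination matrices in half-log decrements from a top concentration at or near clinical Cmax (10 microM if undetermined). Targets were multi-cell spheroids of tumour lines plus HUVEC and MSC stromal cells.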

[1] = second compound 0.00316 µM, first compound 0.0316 µM
[2] = second compound 0.00316 µM, first compound 0.1 µM
[3] = second compound 0.00316 µM, first compound 0.316 µM
[4] = second compound 0.00316 µM, first compound 1 µM
[5] = second compound 0.00316 µM, first compound 3.16 µM
[6] = second compound 0.00316 µM, first compound 10 µM
[7] = second compound 0.01 µM, first compound 0.0316 µM
[8] = second compound 0.01 µM, first compound 0.1 µM
[9] = second compound 0.01 µM, first compound 0.316 µM
[10] = second compound 0.01 µM, first compound 1 µM
[11] = second compound 0.01 µM, first compound 3.16 µM
[12] = second compound 0.01 µM, first compound 10 µM
[13] = second compound 0.0316 µM, first compound 0.0316 µM
[14] = second compound 0.0316 µM, first compound 0.1 µM
[15] = second compound 0.0316 µM, first compound 0.316 µM
[16] = second compound 0.0316 µM, first compound 1 µM
[17] = second compound 0.0316 µM, first compound 3.16 µM
[18] = second compound 0.0316 µM, first compound 10 µM
[19] = second compound 0.1 µM, first compound 0.0316 µM
[20] = second compound 0.1 µM, first compound 0.1 µM
[21] = second compound 0.1 µM, first compound 0.316 µM
[22] = second compound 0.1 µM, first compound 1 µM
[23] = second compound 0.1 µM, first compound 3.16 µM
[24] = second compound 0.1 µM, first compound 10 µM
[25] = second compound 0.316 µM, first compound 0.0316 µM
[26] = second compound 0.316 µM, first compound 0.1 µM
[27] = second compound 0.316 µM, first compound 0.316 µM
[28] = second compound 0.316 µM, first compound 1 µM
[29] = second compound 0.316 µM, first compound 3.16 µM
[30] = second compound 0.316 µM, first compound 10 µM
[31] = second compound 1 µM, first compound 0.0316 µM
[32] = second compound 1 µM, first compound 0.1 µM
[33] = second compound 1 µM, first compound 0.316 µM
[34] = second compound 1 µM, first compound 1 µM
[35] = second compound 1 µM, first compound 3.16 µM
[36] = second compound 1 µM, first compound 10 µM
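Further: spheroids exposed to agents for seven days before the viability readout.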
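Wherever viability, T/C is given: luminescence used as a proxy for viable cell amount.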

Cc1nc(N2CCC3(CC2)COC(C)C3N)c(CO)nc1Sc1ccnc(N)c1Cl (stereo unspecified) + C=CC(=O)N1CCN(c2nc(OCC3CCCN3C)nc3c(F)c(-c4nc(N)cc(C)c4C(F)(F)F)c(Cl)cc23)C(C)C1
IC50 (second compound 0.00316 µM): 569 nM
IC50 (second compound 0.01 µM): 235 nM
IC50 (second compound 0.0316 µM): 82.4 nM
IC50 (second compound 0.1 µM): < 31.6 nM
IC50 (second compound 0.316 µM): < 31.6 nM
IC50 (second compound 1 µM): < 31.6 nM
viability, T/C [1]: 88.3%
viability, T/C [2]: 87.9%
viability, T/C [3]: 66.2%
viability, T/C [4]: 34.3%
viability, T/C [5]: 10.5%
viability, T/C [6]: 7.72%
viability, T/C [7]: 82.9%
viability, T/C [8]: 69.6%
viability, T/C [9]: 44.6%
viability, T/C [10]: 11.6%
viability, T/C [11]: 9.41%
viability, T/C [12]: 7.24%
viability, T/C [13]: 61.2%
viability, T/C [14]: 47.6%
viability, T/C [15]: 20.9%
viability, T/C [16]: 9.03%
viability, T/C [17]: 9.29%
viability, T/C [18]: 7.4%
viability, T/C [19]: 40.2%
viability, T/C [20]: 20.5%
viability, T/C [21]: 11%
viability, T/C [22]: 8.4%
viability, T/C [23]: 8.28%
viability, T/C [24]: 7.55%
viability, T/C [25]: 23.4%
viability, T/C [26]: 14.7%
viability, T/C [27]: 10.1%
viability, T/C [28]: 9.11%
viability, T/C [29]: 8.21%
viability, T/C [30]: 7.31%
viability, T/C [31]: 21.6%
viability, T/C [32]: 15.2%
viability, T/C [33]: 10.9%
viability, T/C [34]: 8.92%
viability, T/C [35]: 8.81%
viability, T/C [36]: 7.65%

CC1(C)CCC(Nc2ncc(C(F)(F)F)c(-c3c[nH]c4c(P(C)(C)=O)c(C#N)ccc34)n2)CN1 (stereo unspecified) + CCn1c(-c2cccnc2C(C)OC)c2c3cc(ccc31)N1CCOC(CC(NC(=O)C(C(C)C)N(C)C(=O)C3(F)CCN(C(=O)C#CC(C)(C)N(C)C)CC3)C(=O)N3CCCC(N3)C(=O)OCC(C)(C)C2)C1
IC50 (second compound 0.000949 µM): > 300 nM
IC50 (second compound 0.003 µM): > 300 nM
IC50 (second compound 0.00949 µM): > 300 nM
IC50 (second compound 0.03 µM): < 0.949 nM
IC50 (second compound 0.0949 µM): < 0.949 nM
IC50 (second compound 0.3 µM): < 0.949 nM
viability, T/C (second compound 0.000949 µM, first compound 0.000949 µM): 88.2%
viability, T/C (second compound 0.000949 µM, first compound 0.003 µM): 72.2%
viability, T/C (second compound 0.000949 µM, first compound 0.00949 µM): 83.1%
viability, T/C (second compound 0.000949 µM, first compound 0.03 µM): 79.9%
viability, T/C (second compound 0.000949 µM, first compound 0.0949 µM): 80.8%
viability, T/C (second compound 0.000949 µM, first compound 0.3 µM): 53.8%
viability, T/C (second compound 0.003 µM, first compound 0.000949 µM): 72.4%
viability, T/C (second compound 0.003 µM, first compound 0.003 µM): 52.9%
viability, T/C (second compound 0.003 µM, first compound 0.00949 µM): 64.5%
viability, T/C (second compound 0.003 µM, first compound 0.03 µM): 67.7%
viability, T/C (second compound 0.003 µM, first compound 0.0949 µM): 61.1%
viability, T/C (second compound 0.003 µM, first compound 0.3 µM): 50.4%
viability, T/C (second compound 0.00949 µM, first compound 0.000949 µM): 52.5%
viability, T/C (second compound 0.00949 µM, first compound 0.003 µM): 45.5%
viability, T/C (second compound 0.00949 µM, first compound 0.00949 µM): 52.7%
viability, T/C (second compound 0.00949 µM, first compound 0.03 µM): 53.4%
viability, T/C (second compound 0.00949 µM, first compound 0.0949 µM): 51.8%
viability, T/C (second compound 0.00949 µM, first compound 0.3 µM): 49.6%
viability, T/C (second compound 0.03 µM, first compound 0.000949 µM): 45%
viability, T/C (second compound 0.03 µM, first compound 0.003 µM): 42.9%
viability, T/C (second compound 0.03 µM, first compound 0.00949 µM): 43.2%
viability, T/C (second compound 0.03 µM, first compound 0.03 µM): 45.1%
viability, T/C (second compound 0.03 µM, first compound 0.0949 µM): 48.2%
viability, T/C (second compound 0.03 µM, first compound 0.3 µM): 43.5%
viability, T/C (second compound 0.0949 µM, first compound 0.000949 µM): 39.2%
viability, T/C (second compound 0.0949 µM, first compound 0.003 µM): 41.1%
viability, T/C (second compound 0.0949 µM, first compound 0.00949 µM): 44.7%
viability, T/C (second compound 0.0949 µM, first compound 0.03 µM): 41.8%
viability, T/C (second compound 0.0949 µM, first compound 0.0949 µM): 50.3%
viability, T/C (second compound 0.0949 µM, first compound 0.3 µM): 43.1%
viability, T/C (second compound 0.3 µM, first compound 0.000949 µM): 34.3%
viability, T/C (second compound 0.3 µM, first compound 0.003 µM): 40.7%
viability, T/C (second compound 0.3 µM, first compound 0.00949 µM): 43.1%
viability, T/C (second compound 0.3 µM, first compound 0.03 µM): 36.2%
viability, T/C (second compound 0.3 µM, first compound 0.0949 µM): 46.9%
viability, T/C (second compound 0.3 µM, first compound 0.3 µM): 42%

CC(=O)OC12COC1CC(O)C1(C)C(=O)C(O)C3=C(C)C(OC(=O)C(O)C(NC(=O)OC(C)(C)C)c4ccccc4)CC(O)(C(OC(=O)c4ccccc4)C21)C3(C)C (stereo unspecified) + C=CC(=O)N1CCN(c2nc(OCC3CCCN3C)nc3c(F)c(-c4nc(N)cc(C)c4C(F)(F)F)c(Cl)cc23)C(C)C1
IC50 (second compound 0.00316 µM): 270 nM
IC50 (second compound 0.01 µM): 223 nM
IC50 (second compound 0.0316 µM): 151 nM
IC50 (second compound 0.1 µM): < 31.6 nM
IC50 (second compound 0.316 µM): < 31.6 nM
IC50 (second compound 1 µM): < 31.6 nM
viability, T/C [1]: 91.4%
viability, T/C [2]: 83.6%
viability, T/C [3]: 44.3%
viability, T/C [4]: 27.3%
viability, T/C [5]: 23.6%
viability, T/C [6]: 22.6%
viability, T/C [7]: 88.2%
viability, T/C [8]: 83.1%
viability, T/C [9]: 35.4%
viability, T/C [10]: 22.8%
viability, T/C [11]: 20.8%
viability, T/C [12]: 19.8%
viability, T/C [13]: 71.7%
viability, T/C [14]: 62.4%
viability, T/C [15]: 27.7%
viability, T/C [16]: 17.4%
viability, T/C [17]: 16.7%
viability, T/C [18]: 15.6%
viability, T/C [19]: 50%
viability, T/C [20]: 38.4%
viability, T/C [21]: 16.3%
viability, T/C [22]: 14.6%
viability, T/C [23]: 14%
viability, T/C [24]: 14.3%
viability, T/C [25]: 35.4%
viability, T/C [26]: 26.4%
viability, T/C [27]: 14%
viability, T/C [28]: 12.4%
viability, T/C [29]: 12.4%
viability, T/C [30]: 12.2%
viability, T/C [31]: 26.3%
viability, T/C [32]: 18.5%
viability, T/C [33]: 13.7%
viability, T/C [34]: 12.7%
viability, T/C [35]: 12.4%
viability, T/C [36]: 13.4%
